# Results as given in patent publication US8648076B2, “Cysteine protease inhibitors and their therapeutic applications” (Hybrigenics SA, priority 2005, dated 2014).
# Where two headings read alike, the source gives them in different places.
# Tests used:
# [1] = target: T1, USP5 (Homo sapiens, UniProt P45974); assay: USP5 activity assay; type: biochemical; settings: 400 nM Ub-AMC, 300 pM enzyme, 30 min pre-incubation at 25° C., 60 min at 37° C.; sigmoidal fit; AF: Autofluorescent; read-out: USP 5 (inhibition of cysteine protease activity)
# T1 sequence (P45974 1-858): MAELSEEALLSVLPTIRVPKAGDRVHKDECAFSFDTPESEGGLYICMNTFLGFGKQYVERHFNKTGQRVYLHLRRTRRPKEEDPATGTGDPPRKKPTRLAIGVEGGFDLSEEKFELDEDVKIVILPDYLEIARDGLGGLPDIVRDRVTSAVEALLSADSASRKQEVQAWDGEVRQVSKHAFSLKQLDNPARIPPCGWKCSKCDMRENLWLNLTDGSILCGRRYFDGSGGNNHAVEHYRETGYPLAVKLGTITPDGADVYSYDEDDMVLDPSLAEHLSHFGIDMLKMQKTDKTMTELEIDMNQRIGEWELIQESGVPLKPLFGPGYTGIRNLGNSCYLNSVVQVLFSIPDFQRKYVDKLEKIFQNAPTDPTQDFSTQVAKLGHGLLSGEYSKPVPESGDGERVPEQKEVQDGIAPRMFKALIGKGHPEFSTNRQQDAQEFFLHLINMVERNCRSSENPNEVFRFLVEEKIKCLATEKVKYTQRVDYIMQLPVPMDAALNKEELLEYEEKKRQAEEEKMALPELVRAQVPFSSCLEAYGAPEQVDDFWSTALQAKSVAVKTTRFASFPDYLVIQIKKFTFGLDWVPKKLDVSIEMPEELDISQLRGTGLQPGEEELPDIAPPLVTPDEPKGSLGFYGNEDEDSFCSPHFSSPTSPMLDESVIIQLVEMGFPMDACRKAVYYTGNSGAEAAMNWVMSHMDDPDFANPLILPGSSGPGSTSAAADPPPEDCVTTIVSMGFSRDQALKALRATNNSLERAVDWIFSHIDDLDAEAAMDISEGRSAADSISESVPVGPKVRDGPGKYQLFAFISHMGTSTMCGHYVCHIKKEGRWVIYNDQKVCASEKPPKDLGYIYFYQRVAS
# Experimental: Bovine Serum Albumin 0.05 mg·ml^−1 pH7.6). Compounds stocks (100 mM) were stored at −20° C. in DMSO. […] Reactions were performed as duplicates in Black LJL 96 well plates (HE microplates; Molecular Devices; 20 μl final reaction volume). The substrate concentration for USP5 was 400 nM Ub-AMC (Boston Biochem). The concentrations of the enzyme (USP5) in specificity assays was 300 pM. The concentrations were determined in order to perform specificity assays under initial velocities at fixed substrate concentration. Compounds were pre-incubated with enzymes for 30 minutes at 25° C. Reactions were initiated by addition of substrate to the plates containing the enzymes (+/− compounds) diluted in assay buffer. Reactions were incubated for 60 minutes at 37° C. Reactions were stopped by adding acetic acid (100 mM final). Readings were performed on a Pherastar Fluorescent Reader (BMG). λ Emission 380 nm; λ Excitation=460 nm. Data (mean values +/− standard deviation) were analyzed as % of control (no compound) and plotted as percentage versus the Log of the compound concentration using GraphPad (Prism). Data were fitted to a sigmoidal model (variable slope).
# [2] = target: T2, USP7 (Homo sapiens, UniProt Q93009); assay: USP7 activity assay; type: biochemical
# T2 construct: His tag (from pFastBac-HT vector) (N); made in house; host or cells: insect cells (Sf9 or High Five), baculovirus
# [3] = target: T3, Uch-L3 (Homo sapiens, UniProt P15374); assay: UCH-L3 activity assay; type: biochemical; settings: 400 nM Ub-AMC, 13 pM enzyme, 30 min pre-incubation at 25° C., 60 min at 37° C.; sigmoidal fit; AF: Autofluorescent; read-out: Uch-L3 (inhibition of cysteine protease activity)
# T3 sequence (P15374 1-230): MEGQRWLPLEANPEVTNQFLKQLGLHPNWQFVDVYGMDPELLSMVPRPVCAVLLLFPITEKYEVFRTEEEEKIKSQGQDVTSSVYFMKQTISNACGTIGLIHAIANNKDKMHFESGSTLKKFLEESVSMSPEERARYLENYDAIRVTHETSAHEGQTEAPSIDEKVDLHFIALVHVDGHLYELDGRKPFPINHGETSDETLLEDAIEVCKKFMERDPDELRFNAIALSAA
# Experimental: Bovine Serum Albumin 0.05 mg·ml^−1 pH7.6). Compounds stocks (100 mM) were stored at −20° C. in DMSO. […] Reactions were performed as duplicates in Black LJL 96 well plates (HE microplates; Molecular Devices; 20 μl final reaction volume). The substrate concentration for Uch-L3 was 400 nM Ub-AMC (Boston Biochem). The concentration of the enzyme (Uch-L3) in specificity assays was 13 pM. The concentrations were determined in order to perform specificity assays under initial velocities at fixed substrate concentration. Compounds were pre-incubated with enzymes for 30 minutes at 25° C. Reactions were initiated by addition of substrate to the plates containing the enzymes (+/−compounds) diluted in assay buffer. Reactions were incubated for 60 minutes at 37° C. Reactions were stopped by adding acetic acid (100 mM final). Readings were performed on a Pherastar Fluorescent Reader (BMG). δ Emission 380 nm; δ Excitation=460 nm. Data (mean values+/− standard deviation) were analyzed as % of control (no compound) and plotted as percentage versus the Log of the compound concentration using GraphPad (Prism). Data were fitted to a sigmoidal model (variable slope).
# [4] = tested on: HCT116 colon cancer cells; assay: HCT116 cell viability and proliferation assay (MTS); type: cell-based; settings: Homo sapiens, read-out: HCT116 D3 GI50
# [5] = tested on: PC-3 prostate cancer cells; assay: PC3 cell viability and proliferation assay (MTS); type: cell-based; settings: Homo sapiens, PC-3, 72 h, read-out: PC3 D3 GI50
# [6] = 400 nM Ub-AMC, 152 pM enzyme, 30 min pre-incubation at 25° C., 60 min at 37° C., sigmoidal fit, read-out: USP 7 (inhibition of cysteine protease activity)
# [7] = HCT-116, HCT116 cells, 72 hours incubation, MTS, mean of 3 independent experiments
# [8] = PC3 cells, 72 hours incubation, MTS, mean of 3 independent experiments
# T2 sequence (Q93009 whole entry): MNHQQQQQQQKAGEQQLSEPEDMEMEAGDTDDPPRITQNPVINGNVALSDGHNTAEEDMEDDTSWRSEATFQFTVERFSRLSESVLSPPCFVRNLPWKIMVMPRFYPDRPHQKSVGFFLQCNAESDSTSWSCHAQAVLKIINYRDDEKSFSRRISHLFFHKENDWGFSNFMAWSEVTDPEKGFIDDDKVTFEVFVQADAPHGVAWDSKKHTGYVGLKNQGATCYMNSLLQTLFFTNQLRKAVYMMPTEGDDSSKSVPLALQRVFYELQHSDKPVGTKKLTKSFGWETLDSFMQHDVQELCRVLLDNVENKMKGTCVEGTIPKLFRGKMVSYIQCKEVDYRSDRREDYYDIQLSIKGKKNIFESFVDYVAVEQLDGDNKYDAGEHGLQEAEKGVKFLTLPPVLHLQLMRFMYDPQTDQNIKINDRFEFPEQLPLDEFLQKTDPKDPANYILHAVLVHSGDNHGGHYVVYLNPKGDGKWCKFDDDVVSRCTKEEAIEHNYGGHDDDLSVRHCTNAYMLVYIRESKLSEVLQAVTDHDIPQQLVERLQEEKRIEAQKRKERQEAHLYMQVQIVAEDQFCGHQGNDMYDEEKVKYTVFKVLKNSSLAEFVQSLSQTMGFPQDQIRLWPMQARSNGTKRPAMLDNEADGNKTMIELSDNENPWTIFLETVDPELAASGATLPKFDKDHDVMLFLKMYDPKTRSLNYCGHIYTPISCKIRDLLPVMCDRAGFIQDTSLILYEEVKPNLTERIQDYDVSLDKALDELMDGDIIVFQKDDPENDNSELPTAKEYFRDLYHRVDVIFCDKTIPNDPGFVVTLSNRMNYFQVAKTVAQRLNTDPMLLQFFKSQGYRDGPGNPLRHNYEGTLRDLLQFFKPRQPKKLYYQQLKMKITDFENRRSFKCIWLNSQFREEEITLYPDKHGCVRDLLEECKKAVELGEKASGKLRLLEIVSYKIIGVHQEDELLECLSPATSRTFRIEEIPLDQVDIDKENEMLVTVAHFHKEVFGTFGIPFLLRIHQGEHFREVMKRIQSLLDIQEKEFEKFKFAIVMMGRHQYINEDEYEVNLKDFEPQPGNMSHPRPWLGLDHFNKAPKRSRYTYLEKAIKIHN
Structure (SMILES),IC50 [1],"IC50 [2, 6]",IC50 [3],"GI50 [4, 7]","GI50 [5, 8]",IC50 [2],"GI50 ([4]; HCT-116, 72 h)",GI50 [5]
"N#Cc1nc2c(nc1C#N)-c1ccccc1C2=NOCc1ccccc1 (mixture of isomers) [Example 13C, 9-Benzyloxyimino-9H-indeno[1,2-b]pyrazine-2,3-dicarbonitrile]",> 100 µM,> 100 µM,> 100 µM,0.75 µM,0.7 µM,,,
"C=CCON=C1c2ccccc2-c2nc(C#N)c(C#N)nc21 (mixture of isomers) [Example 13b, 9-(Allyloxyimino)-9H-indeno[1,2-b]pyrazine-2,3-dicarbonitrile]",> 100 µM,,10 µM,,,> 100 µM,0.58 µM,0.54 µM
"CCON=C1c2ccccc2-c2nc(C#N)c(C#N)nc21 (mixture of isomers) [Example 13d, 9-Ethoxyimino-9H-indeno[1,2-b]pyrazine-2,3-dicarbonitrile]",> 100 µM,> 100 µM,1.3 µM,1.18 µM,1.54 µM,,,
"N#Cc1nc2c(nc1C#N)-c1ccccc1C2=Nc1ccccc1 (mixture of isomers) [Example 14, 9-[phenylimino]-9H-indeno[1,2-b]pyrazine-2,3-dicarbonitrile]",1.9 µM,4.1 µM,0.39 µM,0.43 µM,0.51 µM,,,
"CC(=O)O/N=C1\c2ccccc2-c2nc(C(N)=O)c(C#N)nc21 (single isomer, unassigned) [Example 35, 2-cyano-9-acetoxyimino-9H-indeno[1,2-b]pyrazine-3-carboxylic acid amide]",0.161 µM,,0.048 µM,,,0.506 µM,1.35 µM,1.28 µM
"N#Cc1nc2c(nc1C#N)-c1ccccc1C2=O [Example 1, 9-oxo-9H-indeno[1,2-b]pyrazine-2,3-dicarbonitrile]",1.3 µM,3.5 µM,0.76 µM,0.15 µM,0.61 µM,,,
N#Cc1nc2c(nc1C#N)C1(OCCO1)c1ccccc1-2 [Example 10],> 100 µM,,20 µM,3.4 µM,4.4 µM,,,
"CCO/C(O)=C(\C#N)c1nc2c(nc1C#N)C(=O)c1ccccc1-2 [Example 22, 3-(1-cyano-2-ethoxy-2-hydroxy-vinyl)-9-oxo-9H-indeno[1,2-b]pyrazine-2-carbonitrile]",> 100 µM,,22 µM,> 10 µM,> 10 µM,,,
"N#Cc1nc2c(nc1C(N)=O)-c1ccccc1C2=O [Example 36, 2-cyano-9-oxo-9H-indeno[1,2-b]pyrazine-3-carboxylic acid amide]",0.208 µM,,0.178 µM,,,1.27 µM,4.25 µM,
"CCOC(=O)CO/N=C1\c2ccccc2-c2nc(C(N)=O)c(C#N)nc21 [Example 37, (3-carbamoyl-2-cyano-indeno[1,2-b]pyrazin-9-ylideneaminooxy)-acetic acid ethyl ester]",0.799 µM,2.33 µM,0.393 µM,0.652 µM,,,,
"N#Cc1nc2c(nc1C(N)=O)-c1ccccc1/C2=N\OCC(=O)O [Example 38, (3-carbamoyl-2-cyano-indeno[1,2-b]pyrazin-9-ylideneaminooxy)-acetic acid]",1.85 µM,,0.758 µM,,,4.03 µM,> 10 µM,
"CCOC(=O)CNC(=O)CO/N=C1\c2ccccc2-c2nc(C(N)=O)c(C#N)nc21 [Example 40, [2-(3-carbamoyl-2-cyano-indeno[1,2-b]pyrazin-9-ylideneaminooxy)-acetylamino]-acetic acid ethyl ester]",1.13 µM,2.8 µM,0.245 µM,4.6 µM,,,,
"N#Cc1nc2c(nc1C(N)=O)-c1ccccc1/C2=N\OCC(=O)NCC(=O)O [Example 41, [2-(3-carbamoyl-2-cyano-indeno[1,2-b]pyrazin-9-ylideneaminooxy)-acetylamino]-acetic acid]",1.89 µM,,0.328 µM,,,4.28 µM,> 10 µM,
